The values that follow come from ChEMBL document CHEMBL4800727 (2021).

Experiment [1] concerns the target Beta-3 adrenergic receptor (Homo sapiens) (UniProt P13945). Particulars: Compound concentration 10.0 uM.
Experiment [2] deals with Mast/stem cell growth factor receptor Kit (Homo sapiens) (UniProt P10721). Nature of the experiment: v-kit Hardy-Zuckerman 4 feline sarcoma viral oncogene homolog Millipore kinase panel. As to conditions: Compound concentration 10.0 uM.
For experiment [3], the target named is 5-hydroxytryptamine receptor 2A (Homo sapiens) (UniProt P28223). Nature of the experiment: h5HT2A Cerep panel. As to conditions: Compound concentration 10.0 uM.
The target of experiment [4] is Dual specificity mitogen-activated protein kinase kinase 6 (Homo sapiens) (UniProt P52564). Nature of the experiment: mitogen-activated protein kinase kinase 6 Millipore kinase panel. As to conditions: Compound concentration 10.0 uM.
For experiment [5], the target named is Serine/threonine-protein kinase Nek11 (Homo sapiens) (UniProt Q8NG66). Nature of the experiment: NIMA -related kinase 11 Millipore kinase panel. As to conditions: Compound concentration 10.0 uM.
The target in experiment [6] is 5-hydroxytryptamine receptor 2B (Homo sapiens, UniProt P41595). Description: GPCRScan assay: inhibition of 5-HT2B. The arrangement: radioligand conc. used [nm] 1.0 – 2.0, parental cells stable HEK.
In experiment [7] the target is Histamine H2 receptor (Homo sapiens) (UniProt P25021). Particulars: Compound concentration 10.0 uM.
Experiment [8] concerns the target Serine/threonine-protein kinase Nek7 (Homo sapiens) (UniProt Q8TDX7). Description: NIMA -related kinase 7 Millipore kinase panel. As to conditions: Compound concentration 10.0 uM.
For another experiment, the species on record is Homo sapiens. Nature of the experiment: hSigma Cerep panel. As to conditions: Compound concentration 10.0 uM.
The target in experiment [9] is Proto-oncogene tyrosine-protein kinase receptor Ret (Homo sapiens) (UniProt P07949). Nature of the experiment: ret proto-oncogene Millipore kinase panel. As to conditions: Compound concentration 10.0 uM.
Experiment [10] has as its target Inhibitor of nuclear factor kappa-B kinase subunit alpha (Homo sapiens) (UniProt O15111). Description: conserved helix-loop-helix ubiquitous kinase Millipore kinase panel. As to conditions: Compound concentration 10.0 uM.
The target of experiment [11] is Proto-oncogene tyrosine-protein kinase Src (Homo sapiens) (UniProt P12931). Nature of the experiment: v-src sarcoma viral oncogene homolog Millipore kinase panel. Particulars: Compound concentration 10.0 uM.
The target in experiment [12] is Tyrosine-protein kinase Fgr (Homo sapiens) (UniProt P09769). Nature of the experiment: Gardner-Rasheed feline sarcoma viral (v-fgr) oncogene homolog Millipore kinase panel. As to conditions: Compound concentration 10.0 uM.
The target in experiment [13] is Ribosomal protein S6 kinase beta-1 (Homo sapiens) (UniProt P23443). Description: ribosomal protein S6 kinase, 70kDa, polypeptide 1 Millipore kinase panel. As to conditions: Compound concentration 10.0 uM.
Experiment [14] addresses Ephrin type-A receptor 7 (Homo sapiens) (UniProt Q15375). Nature of the experiment: EPH receptor A7 Millipore kinase panel. As to conditions: Compound concentration 10.0 uM.
In experiment [15] the target is Glutamate NMDA receptor (Rattus norvegicus) (UniProt P35439+Q00959+Q00960+Q00961+Q62645+Q8VHN2+Q9R1M7). Description: rNMDA Cerep panel. The experiment is classed as protein-complex assay. As to conditions: Compound concentration 10.0 uM.
Experiment [16] addresses High affinity cAMP-specific and IBMX-insensitive 3',5'-cyclic phosphodiesterase 8A (Homo sapiens, UniProt O60658). Nature of the experiment: hPDE8A1 PDE scan.
Experiment [17] deals with CDK6/cyclin D3 (Homo sapiens) (UniProt P30281+Q00534). Nature of the experiment: cyclin-dependent kinase 6 / cyclinD3 Millipore kinase panel. As to conditions: Compound concentration 10.0 uM. The experiment is classed as protein-complex assay.
The target in experiment [18] is Myosin light chain kinase, smooth muscle (Homo sapiens) (UniProt Q15746). Nature of the experiment: myosin light chain kinase Millipore kinase panel. As to conditions: Compound concentration 10.0 uM.
Experiment [19] concerns the target 3',5'-cyclic-AMP phosphodiesterase 4D (Homo sapiens, UniProt Q08499). Description: hPDE4D3 PDE scan.
The target in experiment [20] is Rho-associated protein kinase 2 (Homo sapiens) (UniProt O75116). Nature of the experiment: Rho-associated, coiled-coil containing protein kinase 2 Millipore kinase panel. As to conditions: Compound concentration 10.0 uM.
Experiment [21] has as its target Kappa-type opioid receptor (Rattus norvegicus) (UniProt P34975). Description: rOP2 Cerep panel. Particulars: Compound concentration 10.0 uM.
Experiment [22] concerns the target mTOR/FKBP12A/FKBP12B (Homo sapiens) (UniProt P62942+P68106+P42345). Nature of the experiment: mechanistic target of rapamycin / FKBP12 Millipore kinase panel. The class given is protein-complex assay. As to conditions: Compound concentration 10.0 uM.
For experiment [23], the target named is Discoidin domain-containing receptor 2 (Homo sapiens) (UniProt Q16832). Nature of the experiment: discoidin domain receptor tyrosine kinase 2 Millipore kinase panel. As to conditions: Compound concentration 10.0 uM.
For experiment [24], the target named is Protein kinase C eta type (Homo sapiens) (UniProt P24723). Description: protein kinase C, eta Millipore kinase panel. As to conditions: Compound concentration 10.0 uM.
The target in experiment [25] is Interleukin-1 receptor-associated kinase 4 (Homo sapiens) (UniProt Q9NWZ3). Nature of the experiment: interleukin-1 receptor-associated kinase 4 Millipore kinase panel. Particulars: Compound concentration 10.0 uM.
Experiment [26] has as its target cAMP and cAMP-inhibited cGMP 3',5'-cyclic phosphodiesterase 10A (Mus musculus) (UniProt Q8CA95).
The target of experiment [27] is High affinity cGMP-specific 3',5'-cyclic phosphodiesterase 9A (Homo sapiens, UniProt O76083). Description: hPDE9A PDE scan.
Experiment [28] concerns the target Death-associated protein kinase 1 (Homo sapiens) (UniProt P53355). Description: death-associated protein kinase 1 Millipore kinase panel. Particulars: Compound concentration 10.0 uM.
In experiment [29] the target is 5-hydroxytryptamine receptor 7 (Homo sapiens, UniProt P34969). Nature of the experiment: GPCRScan assay: inhibition of 5-HT7A. The arrangement: radioligand conc. used [nm] 5.0 – 6.0, parental cells Stable HEK.
Experiment [30] has as its target Serine/threonine-protein kinase 4 (Homo sapiens) (UniProt Q13043). Description: serine/threonine kinase 4 Millipore kinase panel. As to conditions: Compound concentration 10.0 uM.
In experiment [31] the target is Mitogen-activated protein kinase kinase kinase 7 (Homo sapiens) (UniProt O43318). Description: mitogen-activated protein kinase kinase kinase 7 Millipore kinase panel. As to conditions: Compound concentration 10.0 uM.
Experiment [32] concerns the target PI3-kinase p110-delta/p85-alpha (Homo sapiens) (UniProt P27986+O00329). Nature of the experiment: phosphoinositide-3-kinase, catalytic, delta polypeptide Millipore kinase panel. The class given is protein-complex assay. Particulars: Compound concentration 10.0 uM.
In experiment [33] the target is Hepatocyte growth factor receptor (Homo sapiens) (UniProt P08581). Nature of the experiment: met proto-oncogene Millipore kinase panel. As to conditions: Compound concentration 10.0 uM.
Experiment [34] is described as follows: PPAR1C Cerep panel. As to conditions: Compound concentration 10.0 uM.
For experiment [35], the target named is Protein kinase C gamma type (Homo sapiens) (UniProt P05129). Nature of the experiment: protein kinase C, gamma Millipore kinase panel. Particulars: Compound concentration 10.0 uM.
Experiment [36] has as its target D(1B) dopamine receptor (Homo sapiens) (UniProt P21918). As to conditions: Compound concentration 10.0 uM.
The target of experiment [37] is Substance-P receptor (Homo sapiens) (UniProt P25103). Description: hNK1 Cerep panel. As to conditions: Compound concentration 10.0 uM.
For a further experiment, the species on record is Rattus norvegicus. Description: rNa channel Cerep panel. As to conditions: Compound concentration 10.0 uM.

Molecules are shown by their SMILES. pKi: −log10 of the molar value.

5-hydroxytryptamine receptor 2B, sequence (P41595 whole entry): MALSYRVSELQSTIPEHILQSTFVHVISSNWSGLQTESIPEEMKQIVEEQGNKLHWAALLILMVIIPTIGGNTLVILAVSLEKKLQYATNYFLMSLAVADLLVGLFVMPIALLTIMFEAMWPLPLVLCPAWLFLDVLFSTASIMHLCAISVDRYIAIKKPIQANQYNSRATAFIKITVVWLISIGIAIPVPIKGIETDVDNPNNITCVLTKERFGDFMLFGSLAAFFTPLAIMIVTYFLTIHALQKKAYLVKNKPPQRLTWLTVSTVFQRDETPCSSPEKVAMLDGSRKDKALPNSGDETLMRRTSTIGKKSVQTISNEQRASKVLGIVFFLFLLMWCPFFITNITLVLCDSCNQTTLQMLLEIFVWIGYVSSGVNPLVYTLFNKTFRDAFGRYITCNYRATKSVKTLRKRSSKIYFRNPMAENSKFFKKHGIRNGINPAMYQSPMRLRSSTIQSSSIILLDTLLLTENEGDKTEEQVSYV
5-hydroxytryptamine receptor 2A (Homo sapiens), sequence (P28223 whole entry): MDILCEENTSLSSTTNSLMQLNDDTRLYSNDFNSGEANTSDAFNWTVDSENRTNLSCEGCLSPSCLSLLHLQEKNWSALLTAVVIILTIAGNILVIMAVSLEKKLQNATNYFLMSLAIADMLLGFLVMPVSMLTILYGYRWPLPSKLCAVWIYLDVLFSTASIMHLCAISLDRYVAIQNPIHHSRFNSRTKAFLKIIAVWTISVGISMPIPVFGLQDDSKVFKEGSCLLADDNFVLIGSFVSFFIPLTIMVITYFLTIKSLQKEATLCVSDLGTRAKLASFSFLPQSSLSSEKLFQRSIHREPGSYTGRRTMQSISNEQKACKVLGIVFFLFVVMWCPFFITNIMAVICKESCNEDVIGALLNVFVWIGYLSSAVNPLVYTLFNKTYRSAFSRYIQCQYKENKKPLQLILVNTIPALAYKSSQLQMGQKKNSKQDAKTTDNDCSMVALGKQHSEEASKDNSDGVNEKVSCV
Discoidin domain-containing receptor 2 (Homo sapiens), sequence (Q16832 whole entry, the tested form may be a part): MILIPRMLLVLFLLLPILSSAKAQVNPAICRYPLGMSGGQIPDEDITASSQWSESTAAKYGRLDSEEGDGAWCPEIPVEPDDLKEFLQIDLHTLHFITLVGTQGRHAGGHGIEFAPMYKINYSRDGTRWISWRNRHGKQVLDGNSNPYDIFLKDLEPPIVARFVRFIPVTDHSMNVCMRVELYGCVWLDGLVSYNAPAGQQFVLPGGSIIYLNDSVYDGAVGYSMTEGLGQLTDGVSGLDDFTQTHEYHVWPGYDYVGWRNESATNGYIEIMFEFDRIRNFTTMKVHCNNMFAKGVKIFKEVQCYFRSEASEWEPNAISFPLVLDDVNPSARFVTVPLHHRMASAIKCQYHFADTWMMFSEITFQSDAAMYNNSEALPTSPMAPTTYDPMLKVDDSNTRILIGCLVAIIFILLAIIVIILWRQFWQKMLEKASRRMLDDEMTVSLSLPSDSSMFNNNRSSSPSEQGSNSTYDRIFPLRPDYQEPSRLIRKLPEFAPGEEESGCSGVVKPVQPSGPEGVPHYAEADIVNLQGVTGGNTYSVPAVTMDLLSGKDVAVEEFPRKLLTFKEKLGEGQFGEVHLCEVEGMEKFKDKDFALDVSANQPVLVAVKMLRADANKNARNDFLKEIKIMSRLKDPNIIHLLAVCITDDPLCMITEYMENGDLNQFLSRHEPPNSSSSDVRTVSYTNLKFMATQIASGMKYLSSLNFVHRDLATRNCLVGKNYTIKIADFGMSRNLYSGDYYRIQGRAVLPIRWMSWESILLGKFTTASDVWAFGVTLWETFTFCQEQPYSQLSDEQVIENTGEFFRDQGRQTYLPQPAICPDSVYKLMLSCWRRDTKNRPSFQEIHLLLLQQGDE
Serine/threonine-protein kinase 4 (Homo sapiens), sequence (Q13043 whole entry): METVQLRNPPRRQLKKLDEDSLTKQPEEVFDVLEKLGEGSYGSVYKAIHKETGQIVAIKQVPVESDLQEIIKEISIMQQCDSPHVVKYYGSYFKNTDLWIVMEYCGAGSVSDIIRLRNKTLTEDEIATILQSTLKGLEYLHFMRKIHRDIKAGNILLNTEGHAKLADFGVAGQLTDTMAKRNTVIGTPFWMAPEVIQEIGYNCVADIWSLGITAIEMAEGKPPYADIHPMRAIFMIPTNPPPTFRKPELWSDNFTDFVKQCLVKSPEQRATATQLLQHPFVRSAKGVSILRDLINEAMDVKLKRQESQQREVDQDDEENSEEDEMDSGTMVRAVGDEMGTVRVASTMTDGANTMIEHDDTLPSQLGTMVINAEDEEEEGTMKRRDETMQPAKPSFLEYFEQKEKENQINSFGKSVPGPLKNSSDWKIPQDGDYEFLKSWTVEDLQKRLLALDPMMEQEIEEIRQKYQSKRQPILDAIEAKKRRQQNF
D(1B) dopamine receptor (Homo sapiens), sequence (P21918 whole entry): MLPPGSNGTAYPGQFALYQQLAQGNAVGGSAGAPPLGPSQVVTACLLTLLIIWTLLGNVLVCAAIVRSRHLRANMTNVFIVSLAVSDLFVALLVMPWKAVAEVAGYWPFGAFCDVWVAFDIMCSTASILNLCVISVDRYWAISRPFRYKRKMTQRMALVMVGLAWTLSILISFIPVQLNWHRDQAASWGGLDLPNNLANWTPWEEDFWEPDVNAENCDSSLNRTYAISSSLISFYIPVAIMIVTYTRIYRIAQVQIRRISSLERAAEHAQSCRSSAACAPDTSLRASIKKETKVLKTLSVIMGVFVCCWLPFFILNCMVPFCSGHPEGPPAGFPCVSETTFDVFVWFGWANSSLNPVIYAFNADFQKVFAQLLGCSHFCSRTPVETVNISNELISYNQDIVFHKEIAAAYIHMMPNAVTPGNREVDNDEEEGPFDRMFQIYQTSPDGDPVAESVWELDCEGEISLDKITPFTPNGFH
Histamine H2 receptor (Homo sapiens), sequence (P25021 whole entry): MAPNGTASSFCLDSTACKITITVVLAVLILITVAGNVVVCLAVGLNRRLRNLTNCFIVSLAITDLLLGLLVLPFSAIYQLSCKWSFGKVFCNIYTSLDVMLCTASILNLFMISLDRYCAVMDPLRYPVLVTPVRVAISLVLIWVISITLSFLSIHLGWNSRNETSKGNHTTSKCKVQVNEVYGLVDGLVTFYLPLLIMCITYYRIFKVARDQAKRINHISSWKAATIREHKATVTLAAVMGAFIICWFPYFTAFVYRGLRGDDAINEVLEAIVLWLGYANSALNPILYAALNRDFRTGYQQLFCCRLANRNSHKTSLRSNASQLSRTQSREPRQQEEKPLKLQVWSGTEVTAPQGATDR
Hepatocyte growth factor receptor (Homo sapiens), sequence (P08581 whole entry): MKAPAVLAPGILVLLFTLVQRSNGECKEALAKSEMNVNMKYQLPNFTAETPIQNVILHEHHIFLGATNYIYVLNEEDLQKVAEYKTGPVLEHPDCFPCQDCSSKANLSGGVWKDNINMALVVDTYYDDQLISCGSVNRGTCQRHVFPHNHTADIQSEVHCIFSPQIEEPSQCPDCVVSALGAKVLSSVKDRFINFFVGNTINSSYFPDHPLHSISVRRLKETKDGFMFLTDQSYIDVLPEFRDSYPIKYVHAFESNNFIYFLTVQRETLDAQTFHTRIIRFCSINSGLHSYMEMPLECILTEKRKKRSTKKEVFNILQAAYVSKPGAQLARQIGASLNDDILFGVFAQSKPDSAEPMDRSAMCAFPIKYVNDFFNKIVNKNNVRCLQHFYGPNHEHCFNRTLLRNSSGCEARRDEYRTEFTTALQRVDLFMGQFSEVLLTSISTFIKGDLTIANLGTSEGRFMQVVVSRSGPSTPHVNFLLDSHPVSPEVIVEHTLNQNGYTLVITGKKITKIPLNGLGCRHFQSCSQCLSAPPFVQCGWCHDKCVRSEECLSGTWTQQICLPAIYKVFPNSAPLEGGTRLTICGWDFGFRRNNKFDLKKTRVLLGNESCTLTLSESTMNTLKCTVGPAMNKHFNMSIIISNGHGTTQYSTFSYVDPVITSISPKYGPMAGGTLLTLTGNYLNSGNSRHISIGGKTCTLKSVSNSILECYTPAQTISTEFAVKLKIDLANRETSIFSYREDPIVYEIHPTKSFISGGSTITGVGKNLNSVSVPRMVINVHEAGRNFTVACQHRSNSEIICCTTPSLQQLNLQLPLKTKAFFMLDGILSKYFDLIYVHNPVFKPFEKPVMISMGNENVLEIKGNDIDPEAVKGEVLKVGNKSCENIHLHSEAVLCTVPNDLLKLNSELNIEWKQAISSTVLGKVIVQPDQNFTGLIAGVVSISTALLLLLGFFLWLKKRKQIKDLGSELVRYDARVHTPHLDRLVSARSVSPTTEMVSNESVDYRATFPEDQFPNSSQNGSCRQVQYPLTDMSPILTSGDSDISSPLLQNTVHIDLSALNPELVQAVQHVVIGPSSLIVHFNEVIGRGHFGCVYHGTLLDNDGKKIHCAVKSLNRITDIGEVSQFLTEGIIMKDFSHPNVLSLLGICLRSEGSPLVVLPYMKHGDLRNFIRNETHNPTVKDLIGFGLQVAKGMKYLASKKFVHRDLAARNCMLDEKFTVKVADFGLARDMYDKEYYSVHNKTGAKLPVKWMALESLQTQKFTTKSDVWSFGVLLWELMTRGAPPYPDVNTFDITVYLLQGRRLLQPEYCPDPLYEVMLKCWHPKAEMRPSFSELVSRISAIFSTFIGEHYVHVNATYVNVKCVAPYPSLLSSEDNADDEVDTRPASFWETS
Dual specificity mitogen-activated protein kinase kinase 6 (Homo sapiens), sequence (P52564 whole entry): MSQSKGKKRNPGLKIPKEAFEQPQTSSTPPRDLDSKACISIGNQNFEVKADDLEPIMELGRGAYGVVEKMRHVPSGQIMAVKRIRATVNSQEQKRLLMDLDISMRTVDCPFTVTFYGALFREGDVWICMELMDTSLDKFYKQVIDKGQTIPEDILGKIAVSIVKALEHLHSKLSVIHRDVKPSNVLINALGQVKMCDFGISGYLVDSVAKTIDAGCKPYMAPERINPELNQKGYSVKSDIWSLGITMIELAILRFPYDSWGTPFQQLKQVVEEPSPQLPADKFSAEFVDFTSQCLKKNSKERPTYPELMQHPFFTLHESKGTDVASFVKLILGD

As for `c1ccc(C2CCN(c3cnc4c(N5CCOCC5)nccn34)CC2)cc1`, the inhibition in experiment [1] was 2.32%.

For `COCCc1ccc(-c2c(C)nc3c(N4CCOCC4)ccnn23)cn1` [JNJ-42396302], the inhibition in experiment [2] was 4%; in experiment [4] it was -5%; in [5] it was -2%; in [7], 12.9%; in [8], 2%; in experiment [9], 5%. The inhibition in experiment [10] was -3%; in experiment [11] it was -5%; in experiment [12], 7%; in [13] it was -7%; in [14], 0%; in [17], 0%. Further, the inhibition in experiment [18] was 2%; in experiment [20], -3%; in experiment [22], 9%; in [23], -5%; in experiment [24], -2%; in experiment [25] it was -1%. In addition, the inhibition is -2% in experiment [28]; -7% in [30]; 5% in experiment [31]; 1% in experiment [32]; -6% in experiment [33]; -4% in experiment [35]. Also, in [36], the inhibition is 25.3%. In addition, the effect in experiment [3] was 4.05%; in the experiment listed under Homo sapiens it was 1.55%; in [15], -9.45%; in [21], 1.7%; in [34] it was -2.05%; in [37], 3.05%. Moreover, the effect in the experiment filed under Rattus norvegicus is -5.55%. Further, the pKi in experiment [6] (read-out: Ki) was 5.64; in experiment [16], 4.39; in experiment [19] it was 4.82; in experiment [27], 4.48; in experiment [29], 5.06. In experiment [6] (read-out: pKi (converted)), the Ki was 2.24 µM. Besides, the Increase in cAMP in experiment [26] is 2.3 fold.
